The test system of one data set is HEK293TPAD1 cells. As to the kind of experiment: Cytotoxicity studies (XTT) in HEK293TPAD1 cells. The conditions noted are these: cytotoxicity EC50 (XTT, 24 h) over EC50 for histone H3 citrullination. Type of data set: cell-based, human. On the procedure: Cytotoxicity Studies. HEK293TPAD1 cells were seeded (2×10^4 cells/well) on 96-well plate and were allowed to grow in DMEM (supplemented with 10% heat-inactivated fetal bovine serum, 100 units/mL penicillin, 100 μg/mL streptomycin and 0.15 mg/mL hygromycin B) for 24 h. Cells were then treated with DMSO or various concentrations of inhibitor at 37° C. for 24 h. Activated XTT reagent (ATCC) was added to each well and cells were further incubated at 37° C. for 5 h. Cell viability was measured by recording the absorbance at 475 nm and 660 nm. Equation 3, Y=Bottom+(Top−Bottom)/[1+10^((logEC50-X)*Hillslope)] (3), was used to fit an eight-point dose-response curve to determine the EC50 values for inhibition of cell-proliferation using GraphPad Prism 7.03. Top and Bottom are plateaus of the dose-response curve, X is the log of inhibitor-concentration, Hillslope is the slope factor or Hill slope. All the experiments were performed at least in triplicate.

A further data set deals with T1, PAD3 (Homo sapiens, UniProt Q9ULW8).
T1 construct: made in house
T1 sequence (Q9ULW8 1-664): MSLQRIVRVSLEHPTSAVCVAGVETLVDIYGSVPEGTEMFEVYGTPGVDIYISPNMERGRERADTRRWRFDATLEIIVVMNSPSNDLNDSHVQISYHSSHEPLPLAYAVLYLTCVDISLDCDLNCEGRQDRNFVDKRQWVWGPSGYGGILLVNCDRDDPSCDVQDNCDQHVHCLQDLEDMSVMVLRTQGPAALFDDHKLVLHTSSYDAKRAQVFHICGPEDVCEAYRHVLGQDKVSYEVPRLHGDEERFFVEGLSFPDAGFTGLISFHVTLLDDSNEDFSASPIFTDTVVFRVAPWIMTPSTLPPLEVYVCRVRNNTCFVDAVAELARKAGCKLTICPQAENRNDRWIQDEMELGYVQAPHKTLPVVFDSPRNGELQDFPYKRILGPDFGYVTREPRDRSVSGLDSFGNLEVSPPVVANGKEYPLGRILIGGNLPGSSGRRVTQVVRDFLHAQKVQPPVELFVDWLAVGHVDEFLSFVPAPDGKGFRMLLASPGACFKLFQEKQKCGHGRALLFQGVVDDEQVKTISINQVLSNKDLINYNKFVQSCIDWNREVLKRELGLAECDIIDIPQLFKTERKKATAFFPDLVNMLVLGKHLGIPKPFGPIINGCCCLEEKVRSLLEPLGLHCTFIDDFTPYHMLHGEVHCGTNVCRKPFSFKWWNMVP
Briefly: Inactivation kinetics of PAD3 (COLDER citrulline assay). Type of data set: biochemical. To be noted: for Fold PAD selectivity: bracketed value under kinact/KI; for kinact/KI: marks: * nonlinear fit of kobs versus [I], ‡ linear fit, † single kobs. How it is done: (§1) Inactivation kinetics. […] After 15 min, reactions were quenched with liquid nitrogen and the production of citrulline was quantified using the COLDER assay. (Kearney, et al. Biochemistry 2005, 44, 10570-10582; Knipp, et al. Anal. Biochem. 2000, 286, 257-264.) The time-dependence of PAD inhibition was fit to the following equation 1, […] (1), using Grafit, version 5.0.11, where v is velocity, ν0 is initial velocity, k (or kobs is the pseudo-first-order rate constant of inactivation, and t is time. Upon reaching saturation, the concentration dependence of kobs was fit to equation 2, kobs=kinact[I]/(KI+[I]), (2), using Grafit, version 5.0.11, where kinact is the maximal rate of inactivation, KI is the concentration of inhibitor that affords half-maximal inactivation, and [I] is the concentration of inhibitor. When kobs with [I] varied linearly, kinact/KI was determined from the slope of the line. All the experiments were performed at least in duplicate.

Data set [1] has as its target T2, PAD1 (Homo sapiens, UniProt Q9ULC6).
T2 construct: made in house
T2 sequence (Q9ULC6 1-663): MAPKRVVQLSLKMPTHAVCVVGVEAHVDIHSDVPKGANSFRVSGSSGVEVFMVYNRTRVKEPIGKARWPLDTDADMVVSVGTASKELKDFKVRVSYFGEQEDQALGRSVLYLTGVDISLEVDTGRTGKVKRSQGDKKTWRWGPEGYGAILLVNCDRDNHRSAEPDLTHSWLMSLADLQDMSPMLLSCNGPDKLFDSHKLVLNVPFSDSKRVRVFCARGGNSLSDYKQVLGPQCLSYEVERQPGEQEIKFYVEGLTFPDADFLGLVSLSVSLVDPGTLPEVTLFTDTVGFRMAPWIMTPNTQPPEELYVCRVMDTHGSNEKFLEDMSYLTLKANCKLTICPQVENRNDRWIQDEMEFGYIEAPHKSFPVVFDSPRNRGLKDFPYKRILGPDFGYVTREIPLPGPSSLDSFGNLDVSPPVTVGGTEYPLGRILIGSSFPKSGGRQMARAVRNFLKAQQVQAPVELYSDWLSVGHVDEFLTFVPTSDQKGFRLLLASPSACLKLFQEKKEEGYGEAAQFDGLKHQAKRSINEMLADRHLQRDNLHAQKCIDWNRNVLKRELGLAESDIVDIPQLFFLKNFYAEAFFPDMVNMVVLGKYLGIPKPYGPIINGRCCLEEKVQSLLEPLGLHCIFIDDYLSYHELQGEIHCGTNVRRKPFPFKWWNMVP
Briefly: Inactivation kinetics of PAD1 (COLDER citrulline assay). Type of data set: biochemical. The conditions noted are these: for Ki / kinact/KI / kinact: PAD1; for Ki: concentration of inhibitor that affords half-maximal inactivation; for kinact/KI: marks: * nonlinear fit of kobs versus [I], ‡ linear fit, † single kobs; for Fold PAD selectivity: PAD1 over the other PADs, bracketed value under kinact/KI. On the procedure:
as §1

Data set [2] has as its target T2, PAD1. As to the kind of experiment: Histone H3 citrullination in HEK293TPAD1 cells. Type of data set: cell-based. The conditions noted are these: 1 mM CaCl2, 5 μM ionomycin, 3 h, read-out: EC50 of inhibition of histone H3 citrullination. How it is done:
The final concentration of DMSO in each well was 1%. […] All the experiments were performed at least in duplicate.

In a further data set the target is T3, PAD2 (Homo sapiens, UniProt Q9Y2J8).
T3 construct: made in house
T3 sequence (Q9Y2J8 whole entry): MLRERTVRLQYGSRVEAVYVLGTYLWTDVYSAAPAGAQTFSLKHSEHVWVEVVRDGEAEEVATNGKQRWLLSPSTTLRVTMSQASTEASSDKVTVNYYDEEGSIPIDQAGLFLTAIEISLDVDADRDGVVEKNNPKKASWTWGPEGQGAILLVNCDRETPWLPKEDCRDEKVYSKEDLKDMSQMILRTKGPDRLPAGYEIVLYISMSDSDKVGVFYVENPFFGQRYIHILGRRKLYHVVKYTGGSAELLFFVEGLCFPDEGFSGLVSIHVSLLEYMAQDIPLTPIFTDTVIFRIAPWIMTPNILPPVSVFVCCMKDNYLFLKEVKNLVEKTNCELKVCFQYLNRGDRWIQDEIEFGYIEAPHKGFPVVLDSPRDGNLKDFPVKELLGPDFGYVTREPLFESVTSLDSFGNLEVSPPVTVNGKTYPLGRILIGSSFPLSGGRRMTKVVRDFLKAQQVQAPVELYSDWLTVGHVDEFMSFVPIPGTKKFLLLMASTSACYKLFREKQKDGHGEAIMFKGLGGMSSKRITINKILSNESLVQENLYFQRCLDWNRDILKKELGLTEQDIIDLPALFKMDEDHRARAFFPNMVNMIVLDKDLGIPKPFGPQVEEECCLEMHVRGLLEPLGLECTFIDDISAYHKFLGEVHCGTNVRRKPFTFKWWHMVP
Briefly: Inactivation kinetics of PAD2 (COLDER citrulline assay). Type of data set: biochemical. The conditions noted are these: for Fold PAD selectivity: bracketed value under kinact/KI; for kinact/KI: marks: * nonlinear fit of kobs versus [I], ‡ linear fit, † single kobs. On the procedure:
as §1

For a further data set, the target named is T4, PAD4 (Homo sapiens, UniProt Q9UM07).
T4 construct: made in house
T4 sequence (Q9UM07 whole entry): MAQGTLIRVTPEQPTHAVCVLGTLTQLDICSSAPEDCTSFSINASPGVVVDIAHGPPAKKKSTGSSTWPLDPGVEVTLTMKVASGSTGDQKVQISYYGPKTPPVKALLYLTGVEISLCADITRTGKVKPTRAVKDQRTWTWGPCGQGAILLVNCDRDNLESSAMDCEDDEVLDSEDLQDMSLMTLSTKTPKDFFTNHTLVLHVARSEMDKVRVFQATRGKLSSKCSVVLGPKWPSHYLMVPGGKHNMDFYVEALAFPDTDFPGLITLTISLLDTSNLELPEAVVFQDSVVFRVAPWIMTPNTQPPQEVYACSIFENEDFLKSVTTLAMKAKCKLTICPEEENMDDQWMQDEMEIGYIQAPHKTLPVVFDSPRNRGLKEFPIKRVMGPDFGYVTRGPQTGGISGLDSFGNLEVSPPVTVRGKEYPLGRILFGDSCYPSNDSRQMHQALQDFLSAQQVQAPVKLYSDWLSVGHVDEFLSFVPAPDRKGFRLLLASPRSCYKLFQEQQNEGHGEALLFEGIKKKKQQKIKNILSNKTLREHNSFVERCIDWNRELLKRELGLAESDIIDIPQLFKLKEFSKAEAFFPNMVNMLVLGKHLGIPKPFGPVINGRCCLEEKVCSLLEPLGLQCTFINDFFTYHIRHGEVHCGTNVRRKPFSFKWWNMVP
Briefly: Inactivation kinetics of PAD4 (COLDER citrulline assay). Type of data set: biochemical. The conditions noted are these: for Fold PAD selectivity: bracketed value under kinact/KI; for kinact/KI: marks: * nonlinear fit of kobs versus [I], ‡ linear fit, † single kobs. On the procedure: as §1

A further data set concerns pronuclear mouse zygotes. As to the kind of experiment: Early embryo development of pronuclear mouse zygotes. Type of data set: cell-based. The conditions noted are these: 100 μM inhibitor, 100 h of culture, 87% of control zygotes reached blastocyst stage. How it is done:
In Vitro Fertilization. Female ICR mice (4-6 weeks) were injected intraperitoneally with 10 international units (IU) of pregnant mare serum gonadotropin (PMSG) and after 46 h, 10 IU of human chorionicgonadotropin (hCG). After 16 h, cumulus masses were released from oviducts into HEPES-buffered HTF culture medium (HTF) (InVitro Care, Frederick, MD). Cauda epididymal mouse spermatozoa were released and placed in drops of HTF culture medium (InVitro Care). Then the sperm suspensions were added to the cumulus mass drops with a final concentration of approximately 1-3×10^5/mL. Zygotes were collected and transferred to KSOM medium containing 100 μM PAD1 inhibitor or equal volume of DMSO as a control. Then 4-cell and blastocyst stage embryos were collected after 48 and 100 h of culture, respectively.

The mark [3] stands for this setting: read-out: kinact/KI (converted).

Molecules are shown by their SMILES. Like-named read-outs stand apart in the source and are kept apart here.

As to `N=C(CF)NCCC[C@H](NC(=O)c1cc(I)c(F)c(I)c1O)c1nc2ccccc2[nH]1` [Compound 19], the “Efficacy Index (the ratio of cytotoxicity to EC50)” value in the data set with HEK293TPAD1 cells was 10. The “Fold PAD selectivity” value on PAD3 is “[2] fold”; on PAD1 [1], 44 fold; on PAD2, “[1] fold”; at PAD4, “[1] fold”. For the same compound, the kinact/KI on PAD3 (setting [3]) was 11.7 M⁻¹ s⁻¹; on PAD1 [1] (setting [3]), 221 M⁻¹ s⁻¹; at PAD2 (setting [3]), 5 M⁻¹ s⁻¹; at PAD4 (setting [3]) it was 5 M⁻¹ s⁻¹. The compound also displayed a Ki on PAD1 [1] of 30.2 µM. Besides, the kinact on PAD1 [1] (read-out: kinact (converted)) was 0.00667 s⁻¹. Further, on PAD1 [2], the EC50 was found to be 31.8 µM. Moreover, in the data set on pronuclear mouse zygotes, the “Effect on early embryo development” value is “dramatic arrest of embryo development at the morula stage”.

`C#Cc1c(I)cc(C(=O)N[C@@H](CCCNC(=N)CF)c2nc3ccccc3[nH]2)c(O)c1I` [Compound 21]: on PAD3, the “Fold PAD selectivity” value was “[2] fold” and the kinact/KI is 310 ± 80^† M^−1min^−1. Further, at PAD1 [1], the kinact stood at 0.00517 s⁻¹, the Ki was found to be 69.2 µM and the kinact/KI is 4480 ± 200* M^−1min^−1. For the same compound, on PAD2, the “Fold PAD selectivity” value was “[1] fold” and the kinact/KI is 130 ± 30^† M^−1min^−1. Moreover, at PAD4, the “Fold PAD selectivity” value was “[2] fold” and the kinact/KI was 220 ± 30^† M^−1min^−1.

With `N=C(CF)NCCC[C@H](NC(=O)c1cc(I)cc(I)c1O)c1nc2ccccc2[nH]1` [Compound 1], in the data set with HEK293TPAD1 cells, the “Efficacy Index (the ratio of cytotoxicity to EC50)” value is on record as 17. In addition, the “Fold PAD selectivity” value at PAD3 was “[1] fold”; at PAD1 [1] it was 74 fold; at PAD2 it was “[1] fold”; on PAD4, “[2] fold”. For the same compound, the kinact/KI on PAD3 (setting [3]) was 3.33 M⁻¹ s⁻¹; on PAD1 [1] (setting [3]) it was 173 M⁻¹ s⁻¹; at PAD2 (setting [3]) it was 2.33 M⁻¹ s⁻¹; at PAD4 (setting [3]), 4.5 M⁻¹ s⁻¹. At PAD1 [1], this compound returned a Ki of 12.5 µM. In addition, on PAD1 [1] (read-out: kinact (converted)), the kinact is 0.00217 s⁻¹. Also, the EC50 on PAD1 [2] turned out to be 14.5 µM. In addition, in the data set with pronuclear mouse zygotes, the “Effect on early embryo development” value is recorded as “dramatic arrest of embryo development at the morula stage”.

For the origin of these results see US12448358B2, “Inhibitors of protein arginine deiminase 1 and methods of preparation and use thereof” (University of Massachusetts, priority 2019, dated 2025).
